Measured values: publication PMC11990924, “Inhibition of Tyrosinase and Melanogenesis by Carboxylic Acids: Mechanistic Insights and Safety Evaluation” (Molecules, 2025)

What was measured:
[1] = L-DOPA auto-oxidation analysis
Method: A 5 mM L-DOPA solution was prepared in PBS buffer (pH 7.4). Subsequently, 240 μL of carboxylic acid solution, 360 μL of L-DOPA solution, and 120 μL of PBS buffer were sequentially mixed. The mixture was then incubated at 37 °C for 12 h. […] Deionized water was used as the control. The inhibition of L-DOPA auto-oxidation was calculated using the same method as the melanin content analysis.

[2] = system: B16-F10 cells; assay: Proteomic analysis of B16-F10 cells (DIA mass spectrometry); assay type: cell-based, mouse; conditions: 6 mM vs control; Table S4
Method: B16-F10 cells were treated with various concentrations of carboxylic acids following the same culture protocol used for melanin inhibition assays. After treatment, the cells were collected and submitted to Shanghai Zhongke Xinming Biotechnology Co., Ltd. (Shanghai, China) for proteomics analysis. The collected cells were lysed with an appropriate volume of SDT lysis buffer (4% SDS, 100 mM Tris-HCl, pH 7.6) to extract proteins. DTT was added to reduce disulfide bonds, followed by incubation at room temperature for 1 h. Subsequently, iodoacetamide was added, and the mixture was reacted in the dark at room temperature for 30 min. The proteins were then digested with trypsin overnight. The resulting peptide fragments were desalted using a C18 cartridge. After freeze-drying, the peptides were resuspended in 40 μL of 0.1% formic acid solution, and the peptide concentration was determined by measuring the absorbance at 280 nm. An appropriate amount of internal reference for targeted proteomics (iRT) standard peptides was added to each sample for data-independent acquisition (DIA) mass spectrometry analysis. Chromatographic separation was performed using a nanoflow Evosep One system. The separated samples were analyzed by DIA mass spectrometry using a timsTOF Pro mass spectrometer (Bruker Daltonics, Bremen, Germany). Detection was conducted in positive-ion mode, with MS and MS/MS scanning ranges set from 100 to 1700 m/z. MS2 data acquisition was performed in DIA mode, with four TIMS scan windows, each accumulating for 100 ms. In PASEF mode, the collision energy varied linearly with ion mobility (1/K0), ranging from 20 to 59 eV for ions with 1/K0 values between 0.85 and 1.30 Vs/cm^2. The DIA data were processed using Spectronaut 19 software with the following parameter settings: retention time prediction type set to dynamic iRT, interference correction on MS2 level enabled, cross-run normalization enabled, maximum missed cleavage sites set to 2, fixed modification set to Carbamidomethyl (C), and variable modifications set to Oxidation (M) and Acetyl (Protein N-term). All results were filtered with a Q-value cutoff of 0.01, corresponding to a false discovery rate (FDR) of less than 1%. The target protein set was annotated using Blast2GO (version BLASTP 2.8.0+). The process included four steps: sequence alignment (Blast), GO mapping, GO annotation, and additional annotation augmentation using InterProScan. Using the KOBAS 3.0 software, KEGG pathway annotation was performed on the target protein set. Fisher’s exact test was employed to compare the distribution of GO categories in the target protein set and the overall protein set, thereby conducting enrichment analysis of the GO annotations in the target protein set. The proteomics dataset generated in this study has been made publicly available through the PRIDE ProteomeXchange Consortium with the dataset identifier PXD061919.

[3] = pH of carboxylic acid mixed with PBS buffer, without tyrosinase; assay type: physicochemical; conditions: in PBS buffer, absence of tyrosinase

## O=C(O)CC(O)C(=O)O (centres unmarked) [malic acid]
[1]; 0.75 mM
  L-DOPA auto-oxidation inhibition rate: exceeding 80%
[1]; 37 °C, 12 h, calculated using SPSS, read-out: IC50 for L-DOPA auto-oxidation inhibition
  IC50: 380 µM
[2]
  Abhd14a protein fold change: 0.4947
  Acvr1b protein fold change: 0.348
  Adgrg1 protein fold change: 0.3255
  Aplp2 protein fold change: 0.1925
  App protein fold change: 0.309
  Arrdc3 protein fold change: 0.2723
  Atp6ap2 protein fold change: 0.4615
  Atxn2l protein fold change: 0.3743
  Bace2 protein fold change: 0.2949
  CUB domain-containing protein (Q3TD85) fold change: 0.319
  Cd151 protein fold change: 0.3796
  Cox6a1 protein fold change: 2.331
  Cpe protein fold change: 0.425
  Cryab protein fold change: 0.4352
  Ctns protein fold change: 0.4962
  Cxne protein fold change: 0.4043
  Cyp51a1 protein fold change: 0.4596
  Dct protein fold change: 0.453
  Ddr1 protein fold change: 0.4956
  Dgcr2 protein fold change: 0.4757
  Dhrsx protein fold change: 0.4224
  E2f5 protein fold change: 2.052
  Eng protein fold change: 0.4971
  Fam174b protein fold change: 0.4334
  Fau protein fold change: 4.207
  Fip1l1 protein fold change: 0.4619
  Fth1 protein fold change: 2.2552
  Ftl1 protein fold change: 2.521
  Ginm1 protein fold change: 0.2408
  Globin family profile domain-containing protein (Q8BPF4) fold change: 0.4868
  Gpnmb protein fold change: 0.4267
  H1-0 protein fold change: 2.091
  H1-1 protein fold change: 2.387
  Haghl protein fold change: 2.0913
  Hbbt1 protein fold change: 0.3537
  Hist2h2aa1 protein fold change: 5.559
  Hspb1 protein fold change: 0.432
  Ifitm2 protein fold change: 0.2473
  Ifitm3 protein fold change: 0.405
  Ifngr1 protein fold change: 0.477
  Il10rb protein fold change: 0.279
  Il17ra protein fold change: 0.4348
  Itih3 protein fold change: 0.2609
  Itm2b protein fold change: 0.1357
  Itm2c protein fold change: 0.2222
  Lama2 protein fold change: 2.748
  Laptm4b protein fold change: 0.1099
  Ldlr protein fold change: 0.3286
  Lgmn protein fold change: 0.3573
  Lmbrd1 protein fold change: 0.4382
  Map1lc3b protein fold change: 0.4627
  Mapre2 protein fold change: 0.4775
  Mfap3 protein fold change: 0.2203
  Mfge8 protein fold change: 0.4888
  Mlana protein fold change: 0.1802
  Ndfip1 protein fold change: 0.1482
  Nrp1 protein fold change: 0.4816
  Nrp2 protein fold change: 0.3963
  Nus1 protein fold change: 0.4939
  Pbx1 protein fold change: 2.038
  Pcdhgb2 protein fold change: 0.2826
  Peli1 protein fold change: 0.4419
  Plekhb2 protein fold change: 0.4812
  Pmel protein fold change: 0.458
  Ppp1r12b protein fold change: 2.498
  Psap protein fold change: 0.4952
  Ptprs protein fold change: 0.4661
  Pwwp3a protein fold change: 2.511
  Rhob protein fold change: 0.4341
  Rhoj protein fold change: 0.4834
  Rnf130 protein fold change: 0.4325
  Sdcbp protein fold change: 0.4716
  Sema4b protein fold change: 0.4477
  Sema6d protein fold change: 0.4605
  Sgce protein fold change: 0.2346
  Sh3bp2 protein fold change: 0.3699
  Slc4a2 protein fold change: 0.4141
  Slc24a5 protein fold change: 0.4133
  Slc38a2 protein fold change: 0.2034
  Slc45a2 protein fold change: 0.4213
  Sppl2b protein fold change: 0.4857
  Spring1 protein fold change: 0.2636
  Syt4 protein fold change: 0.1657
  Tax1bp1 protein fold change: 0.4715
  Tcf7l1 protein fold change: 0.4286
  Tgfbr1 protein fold change: 0.4711
  Tk1 protein fold change: 2.015
  Tmem59 protein fold change: 0.1062
  Tmem176a protein fold change: 0.2285
  Tnfrsf1a protein fold change: 0.4638
  Tpp1 protein fold change: 0.3033
  Tspan3 protein fold change: 0.3098
  Tspan6 protein fold change: 0.466
  Tspan10 protein fold change: 0.2722
  Tspan14 protein fold change: 0.4171
  Tyr protein fold change: 0.3761
  Tyrp1 protein fold change: 0.2755
  Ubl3 protein fold change: 0.2044
  Wfdc3 protein fold change: 0.3403
  il6st protein fold change: 0.3637
[3]; 3 mM
  pH: 4.6
[3]; 6 mM
  pH: 3.5
